Measured values reported in patent US7470537B2, “Adipose-derived stem cells and lattices” (priority 1999, dated 2008).

What was measured:
Type in all cases: cell-based, human
PLA cells = assay: Micromass culture chondrogenic nodule formation; settings: induction medium containing TGFβ1 alone
Protocol: Chondrogenic differentiation was induced using a micromass culture protocol as previously described with some modifications (Ahrens, P B, et al., 1977 Dev. Biol. 60:69-82; Denker, A E 1995 Differentiation 59:25-34). Ten microliter drops of the PLA cellular suspension were placed in the center of each well of a 24-well tissue culture plate and on chamber slides. The cells were placed in an incubator at 37° C. at 5% CO2 for two hours to allow cell adherence. The pellets were gently overlaid with control medium and incubated overnight. The medium was replaced by chondrogenic medium [DMEM with 1% FBS supplemented with 10 ng/ml TGF-β1 (R&D Systems, Minneapolis, Minn.), 6.25 μg/ml insulin (Sigma), and 6.25 μg/ml transferrin (Sigma)]. The pellets were induced for six days in chondrogenic medium. At day six and thereafter, 50 μg/ml ascorbic acid-2-phosphate (Sigma) was added to the chondrogenic medium mixture. PLA pellets were harvested at days two, seven, and fourteen after initial induction for analysis. […] HFF cells were cultured as above under micromass and monolayer conditions as a negative control.
In order to assess the relationship of chondrogenic induction to PLA cell, micromass cultures were plated in chondrogenic medium at cell concentrations of 1×10^5, 1×10^6, 2.5×10^6, 5×10^6, 1×10^7, 2×10^7, and 5×10^7 cells per milliliter (cells/ml). […]

[1] = system: Adipose-derived stem cells; assay: Culture in the presence of 5-azacytidine; settings: exposure to 5-azacytidine
Protocol: Adipose-derived stem cells obtained in accordance with Example 1 were cultured in the presence of 5-azacytidine.

matrix mineralization = assay: Total calcium, spectrophotometric
Protocol: Cells were washed with PBS (no Ca^2+, no Mg^2+) and harvested in 0.1N HCl. Cells were extracted for a minimum of 4 hours at 4° C. and centrifuged at 1000×g for 5 minutes. Total calcium in the supernatant was determined using Sigma kit #587 and measured at A575 nm. The assay was calibrated using calcium standard solutions. Total protein was determined and the samples were expressed as mM Ca/ug protein. […] Values are expressed as the mean±SD.
Bone formation in vivo is a complex process involving morphogens, hormones and growth factors. Recent work has questioned the efficacy of synthetic glucocorticoids, like dexamethasone (Dex), in mediating osteogenesis. Glucocorticoids appear to inhibit the action of several osteogenic genes including osteocalcin, CBFA-1 and CNI (as reviewed in Cooper, et al., 1999 J. Endocrinol. 163:159-164). It is well established that bone tissue and osteoprogenitor cells are targets of vitamin D action (Chen, et al., 1983 J. Biol. Chem. 258:4350; Chen, et al., 1979 J. Biol. Chem. 254:7491; Narbaitz, et al., 1983 Calcif. Tiss. Int. 35:177) and this metabolite stimulates both AP activity and CNI synthesis by human bone cell populations (Beresford, et al., 1986 Endo 119:1776-1785). […] AP activity and Ca^2+ accumulation were measured over time using commercial kits and normalized with respect to protein and/or time.

Alkaline phosphatase = Alkaline phosphatase enzyme activity, spectrophotometric; settings: 2 to 3 weeks
Protocol: Cells were washed with PBS and harvested into PBS/0.1% Triton X-100 (PBS/TX100). AP enzyme activity was assayed using a commercial AP enzyme kit (Sigma) and measured at an absorbance of 405 nm. Total protein in each sample was measured based on the Bradford method (Bradford 1976 Anal. Biochem. 72:248-254) using a BCA Protein Assay Kit (Pierce, Rockford, Ill.). AP activity was expressed a nmol p-nitrophenol produced/minute/ug protein. The assay was calibrated using standard p-nitrophenol solutions. Differentiated MSC and NHOst cells were assayed as positive controls while non-induced PLA cells were assayed as a negative control. Values are expressed as the mean±SD.

## TGFβ1: transforming growth factor-beta 1
PLA cells
  nodule formation by PLA cells: PLA nodules formed

## Nc1ncn([C@@H]2O[C@H](CO)[C@@H](O)[C@H]2O)c(=O)n1 [5-azacytidine]
[1]
  myogenic differentiation of adipose-derived stem cells: did not induce myogenic differentiation

## C=C1/C(=C\C=C2/CCC[C@]3(C)[C@@H]([C@H](C)CCCC(C)(C)O)CC[C@@H]23)C[C@@H](O)C[C@@H]1O [VD, 1,25-dihydroxyvitamin D3]
Matrix mineralization
  overall increase in matrix mineralization in PLA cells: 122 fold

## C[C@@H]1C[C@H]2[C@@H]3CCC4=CC(=O)C=C[C@]4(C)[C@@]3(F)[C@@H](O)C[C@]2(C)[C@@]1(O)C(=O)CO [Dex, dexamethasone]
Alkaline phosphatase; MSCs
  AP enzyme induction in MSCs: 54.2 fold
Alkaline phosphatase; PLA cells
  AP enzyme induction in PLA cells: 17.2 fold
Matrix mineralization
  overall increase in matrix mineralization in PLA cells: 56 fold
